Laboratory results published in patent publication US4920103A, “Modifications of mycinose and 3-O-demethylmycinose in tylosin-type macrolides” (Eli Lilly and Company, priority 1986, dated 1990).
≈ marks a conversion by molar mass, not a printed value. Like-named read-outs stand apart in the source and are kept apart here.

Experiments:
[1] = tested on: Haemophilus influenzae 76; test: MIC, standard agar-dilution assay, H. influenzae 76; assay type: cell-based
Procedure: (§1) The MIC's in Table II were determined by standard agar-dilution assays. The MIC's in Table III were obtained using conventional broth-dilution microtiter tests.

[2] = tested on: Staphylococcus aureus X400; test: MIC, standard agar-dilution assay, S. aureus X400; assay type: cell-based
Procedure: as §1

[3] = tested on: Streptococcus Group D X66; test: MIC, standard agar-dilution assay, Streptococcus Group D X66; assay type: cell-based
Procedure: as §1

[4] = tested on: Staphylococcus aureus V41; test: MIC, standard agar-dilution assay, S. aureus V41; assay type: cell-based; conditions: Staphylococcus aureus, V41
Procedure: as §1

[5] = tested on: Pseudomonas aeruginosa X239; test: MIC, standard agar-dilution assay, P. aeruginosa X239; assay type: cell-based
Procedure: as §1

[6] = tested on: Streptococcus pneumoniae Park I; test: MIC, standard agar-dilution assay, S. pneumoniae Park I; assay type: cell-based; conditions: Streptococcus pneumoniae
Procedure: as §1

[7] = tested on: Streptococcus pyogenes C203; test: Protection of mice experimentally infected with Streptococcus pyogenes C203; assay type: in vivo; conditions: Streptococcus pyogenes, doses given 1 and 4 hours postinfection, read-out: ED50
Procedure: The formula 1 compounds have shown in vivo antimicrobial activity against experimentally-induced infections in laboratory animals. When two doses of test compound were administered to mice experimentally infected with Streptococcus pyogenes C203, the activity observed was measured as an ED50 value [effective dose in mg/kg to protect 50% of the test animals: see Warren Wick, et al., J. Bacteriol. 81, 233-235 (1961)].
^a mg/kg × 2; doses given 1 and 4 hours postinfection

[8] = tested on: Klebsiella pneumoniae X68; test: MIC, standard agar-dilution assay, K. pneumoniae X68; assay type: cell-based
Procedure: as §1

[9] = tested on: Haemophilus influenzae C.L.; test: MIC, standard agar-dilution assay, H. influenzae C.L.; assay type: cell-based
Procedure: as §1

[10] = tested on: Streptococcus pyogenes C203; test: MIC, standard agar-dilution assay, S. pyogenes C203; assay type: cell-based; conditions: Streptococcus pyogenes, C203
Procedure: as §1

[11] = tested on: Staphylococcus aureus X1.1; test: MIC, standard agar-dilution assay, S. aureus X1.1; assay type: cell-based
Procedure: as §1

[12] = tested on: Staphylococcus aureus S13E; test: MIC, standard agar-dilution assay, S. aureus S13E; assay type: cell-based
Procedure: as §1

[13] = tested on: Staphylococcus epidermidis EPI1; test: MIC, standard agar-dilution assay, S. epidermidis EPI1; assay type: cell-based
Procedure: as §1

[14] = tested on: Staphylococcus epidermidis 222; test: MIC, standard agar-dilution assay, S. epidermidis 222; assay type: cell-based
Procedure: as §1

[15] = tested on: Streptococcus Group D 2041; test: MIC, standard agar-dilution assay, Streptococcus Group D 2041; assay type: cell-based; conditions: GROUPD2041
Procedure: as §1

[16] = tested on: Escherichia coli EC14; test: MIC, standard agar-dilution assay, E. coli EC14; assay type: cell-based
Procedure: as §1

[17] = agar-dilution, ampicillin-resistant strain, read-out: MIC
[18] = agar-dilution, ampicillin-sensitive strain, read-out: MIC

Compound	MIC [1, 17] [µg/mL]	MIC [2] [µg/mL]	MIC [3] [µg/mL]	MIC [4] [µg/mL]	MIC ([5]; agar-dilution, read-out: MIC) [µg/mL]	ED50 ([7]; C203, oral) [mg/kg]	ED50 ([7]; C203, sc, subcutaneous) [mg/kg]	MIC ([8]; agar-dilution, read-out: MIC) [µg/mL]	MIC [9, 18] [µg/mL]	MIC [10] [µg/mL]	MIC [11] [µg/mL]	MIC [12] [µg/mL]	MIC [13] [µg/mL]	MIC [14] [µg/mL]	MIC [15] [µg/mL]	MIC ([16]; agar-dilution, read-out: MIC) [µg/mL]	MIC [6] [µg/mL]	MIC ([15]; agar-dilution, read-out: MIC) [µg/mL]	MIC [1] [µg/mL]	MIC [9] [µg/mL]	further results
CCC1OC(=O)CC(O)C(C)C(OC2OC(C)C(O)C(N(C)C)C2O)C(CCOc2ccccc2)CC(C)C(=O)C=CC(C)=CC1COC1OC(C)C(OS(C)(=O)=O)C(OC)C1OC (stereo not drawn) [Compound 15, 4"-O-Methanesulfonyl-20-DH-20-O-Phenyl-desmycosin]	128 (≈ 138 µM)	2 (≈ 2.15 µM)	16 (≈ 17.2 µM)	2 (≈ 2.15 µM)	> 128	29.3	> 10	> 128	128 (≈ 138 µM)	4 (≈ 4.31 µM)	2 (≈ 2.15 µM)	2 (≈ 2.15 µM)	2 (≈ 2.15 µM)	1 (≈ 1.08 µM)	32 (≈ 34.5 µM)	> 128	–	–	–	–	MIC ([6]; agar-dilution, read-out: MIC): 8 µg/mL (≈ 8.62 µM)
CCC1OC(=O)CC(O)C(C)C(OC2OC(C)C(O)C(N(C)C)C2O)C(CCOc2ccccc2)CC(C)C(=O)C=CC(C)=CC1COC1OC(C)C(OC)C(O)C1OC (stereo not drawn) [Compound 50, 4"-O-Methyl-20-DH-20-O-phenyl-lactenocin]	–	0.5 (≈ 0.588 µM)	16 (≈ 18.8 µM)	0.5 (≈ 0.588 µM)	> 128	75.3	> 10	> 128	128 (≈ 151 µM)	4 (≈ 4.71 µM)	0.5 (≈ 0.588 µM)	0.5 (≈ 0.588 µM)	0.5 (≈ 0.588 µM)	0.25 (≈ 0.294 µM)	32 (≈ 37.6 µM)	> 128	8 (≈ 9.41 µM)	–	–	–	–
CCC1OC(=O)CC(O)C(C)C(OC2OC(C)C(O)C(N(C)C)C2O)C(CCOc2ccccc2)CC(C)C(=O)C=CC(C)=CC1COC1OC(C)/C(=N\OC)C(OC)C1OC (stereo not drawn) [Compound 6, 4"-O-Methoxyimino-20-DH-20-O-phenyl-desmycosin]	> 128	2 (≈ 2.28 µM)	4 (≈ 4.56 µM)	2 (≈ 2.28 µM)	> 128	–	–	> 128	> 128	4 (≈ 4.56 µM)	2 (≈ 2.28 µM)	2 (≈ 2.28 µM)	2 (≈ 2.28 µM)	2 (≈ 2.28 µM)	8 (≈ 9.12 µM)	> 128	1 (≈ 1.14 µM)	–	–	–	–
CCC1OC(=O)CC(O)C(C)C(OC2OC(C)C(OC(C)=O)C(N(C)C)C2OC(C)=O)C(CCOc2ccccc2)CC(C)C(=O)C=CC(C)=CC1COC1OC(C)C(OS(=O)(=O)C(F)(F)F)C(OC)C1OC (stereo not drawn) [Compound 40, 2',4'-Di-O-acetyl-20-DH-20-O-phenyl-4"-O-(trifluoromethanesulfonyl)-desmycosin]	> 128	2 (≈ 1.88 µM)	–	2 (≈ 1.88 µM)	> 128	–	–	> 128	> 128	2 (≈ 1.88 µM)	2 (≈ 1.88 µM)	2 (≈ 1.88 µM)	2 (≈ 1.88 µM)	2 (≈ 1.88 µM)	–	> 128	8 (≈ 7.5 µM)	> 128	–	–	MIC ([3]; agar-dilution, read-out: MIC): > 128 µg/mL
CCC1OC(=O)CC(O)C(C)C(OC2OC(C)C(O)C(N(C)C)C2O)C(CCOc2ccccc2)CC(C)C(=O)C=CC(C)=CC1COC1OC(C)C(OS(=O)(=O)Cc2ccccc2)C(OC)C1OC (stereo not drawn) [Compound 17, 4"-O-Benzylsulfonyl-20-DH-20-O-phenyl-desmycosin]	–	4 (≈ 3.98 µM)	32 (≈ 31.9 µM)	4 (≈ 3.98 µM)	–	–	–	–	–	4 (≈ 3.98 µM)	4 (≈ 3.98 µM)	4 (≈ 3.98 µM)	4 (≈ 3.98 µM)	2 (≈ 1.99 µM)	–	–	2 (≈ 1.99 µM)	128 (≈ 127 µM)	> 128	> 128	MIC [5]: > 128 µg/mL; MIC [8]: > 128 µg/mL; MIC [16]: > 128 µg/mL
CCC1OC(=O)CC(O)C(C)C(OC2OC(C)C(OC(C)=O)C(N(C)C)C2OC(C)=O)C(CCOc2ccccc2)CC(C)C(=O)C=CC(C)=CC1COC1OC(C)C(N)C(OC)C1OC (stereo not drawn) [Compound 20, 2',4'-Di-O-acetyl-4"-amino-4"-deoxy-20-DH-20-O-phenyldesmycosin]	–	0.5 (≈ 0.536 µM)	4 (≈ 4.29 µM)	0.25 (≈ 0.268 µM)	> 128	–	–	> 128	–	0.25 (≈ 0.268 µM)	0.25 (≈ 0.268 µM)	0.5 (≈ 0.536 µM)	0.5 (≈ 0.536 µM)	0.25 (≈ 0.268 µM)	8 (≈ 8.57 µM)	> 128	1 (≈ 1.07 µM)	–	16 (≈ 17.1 µM)	16 (≈ 17.1 µM)	–
